The source made the active and inactive calls. No cut-off for these calls is given here.
Tested on: not listed separately
Assay: Antiproliferative activity against human MOLM16 cells incubated for 72 hrs by Cell-Titer Glo assay
Settings: MOLM16, 72 h

| Structure (SMILES) | IC50 [nM] |
| --- | --- |
| CO[C@H]1CC[C@H](n2c([C@@H]3CCCC(=O)N3c3ccc(F)c(F)c3)nc3cc(-c4c(C)noc4C)ccc32)CC1 [INOBRODIB] | 12.9 |
| Cc1noc(C)c1-c1ccc2c(c1)nc([C@@H]1CCCC(=O)N1c1ccc(F)c(F)c1)n2C1CCN(CC(=O)Nc2ccc(-c3ccc(CNc4cccc5c4C(=O)N(C4CCC(=O)NC4=O)C5=O)cc3)cc2)CC1 (some centres not stated) | 14.4 |
| Cc1noc(C)c1-c1ccc2c(c1)nc([C@@H]1CCCC(=O)N1c1ccc(F)c(F)c1)n2C1CCN(CC(=O)Nc2ccc(-c3ccc(CNc4cccc5c4C(=O)N(C4CCC(=O)N(C)C4=O)C5=O)cc3)nc2)CC1 (some centres not stated) | 200 |
| Cc1noc(C)c1-c1ccc2c(c1)nc([C@@H]1CCCC(=O)N1c1ccc(F)c(F)c1)n2C1CCN(CC(=O)Nc2cnc(-c3ccc(CNc4cccc5c4C(=O)N(C4CCC(=O)N(C)C4=O)C5=O)cc3)nc2)CC1 (some centres not stated) | 45.8 |

Tested on: MV4-11
Assay: Antiproliferative activity against human MV4-11 cells incubated for 120 hrs by Cell-Titer Glo assay
Settings: MV4-11, 120 h

| IC50 [nM] | Structure (SMILES) |
| --- | --- |
| 20.4 | CO[C@H]1CC[C@H](n2c([C@@H]3CCCC(=O)N3c3ccc(F)c(F)c3)nc3cc(-c4c(C)noc4C)ccc32)CC1 [INOBRODIB] |
| 1740 | Cc1noc(C)c1-c1ccc2c(c1)nc([C@@H]1CCCC(=O)N1c1ccc(F)c(F)c1)n2C1CCN(CC(=O)NC2CCN(c3cccc4c3C(=O)N(C3CCC(=O)NC3=O)C4=O)CC2)CC1 (some centres not stated) |
| 980 | Cc1noc(C)c1-c1ccc2c(c1)nc([C@@H]1CCCC(=O)N1c1ccc(F)c(F)c1)n2C1CCN(CC(=O)NCC2CCN(c3cccc4c3C(=O)N(C3CCC(=O)NC3=O)C4=O)CC2)CC1 (some centres not stated) |
| 5.7 | Cc1noc(C)c1-c1ccc2c(c1)nc([C@@H]1CCCC(=O)N1c1ccc(F)c(F)c1)n2C1CCN(CC(=O)Nc2ccc(-c3ccc(CNc4cccc5c4C(=O)N(C4CCC(=O)NC4=O)C5=O)cc3)cc2)CC1 (some centres not stated) |
| 223 | Cc1noc(C)c1-c1ccc2c(c1)nc([C@@H]1CCCC(=O)N1c1ccc(F)c(F)c1)n2C1CCN(CC(=O)N2CCN(CCNc3cccc4c3C(=O)N(C3CCC(=O)NC3=O)C4=O)CC2)CC1 (some centres not stated) |
| 405 | Cc1noc(C)c1-c1ccc2c(c1)nc([C@@H]1CCCC(=O)N1c1ccc(F)c(F)c1)n2C1CCN(CC(=O)NCCCCCCNc2cccc3c2C(=O)N(C2CCC(=O)NC2=O)C3=O)CC1 (some centres not stated) |
| 112 | Cc1noc(C)c1-c1ccc2c(c1)nc([C@@H]1CCCC(=O)N1c1ccc(F)c(F)c1)n2C1CCN(CC(=O)N2CCC(N3CCC(Nc4cccc5c4C(=O)N(C4CCC(=O)NC4=O)C5=O)CC3)CC2)CC1 (some centres not stated) |
| 1220 | Cc1noc(C)c1-c1ccc2c(c1)nc([C@@H]1CCCC(=O)N1c1ccc(F)c(F)c1)n2C1CCN(CC(=O)NCc2ccc(CNc3cccc4c3C(=O)N(C3CCC(=O)NC3=O)C4=O)cc2)CC1 (some centres not stated) |
| 606 | Cc1noc(C)c1-c1ccc2c(c1)nc([C@@H]1CCCC(=O)N1c1ccc(F)c(F)c1)n2C1CCN(CC(=O)NCCCCCCCCCCNc2cccc3c2C(=O)N(C2CCC(=O)NC2=O)C3=O)CC1 (some centres not stated) |
| 273 | Cc1noc(C)c1-c1ccc2c(c1)nc([C@@H]1CCCC(=O)N1c1ccc(F)c(F)c1)n2C1CCN(CC(=O)Nc2ccc(CC3CCN(c4cccc5c4C(=O)N(C4CCC(=O)NC4=O)C5=O)CC3)cc2)CC1 (some centres not stated) |
| 86.7 | Cc1noc(C)c1-c1ccc2c(c1)nc([C@@H]1CCCC(=O)N1c1ccc(F)c(F)c1)n2C1CCN(CC(=O)Nc2ccc(-c3ccc(CNc4cccc5c4C(=O)N(C4CCC(=O)N(C)C4=O)C5=O)cc3)nc2)CC1 (some centres not stated) |
| > 10000 | Cc1noc(C)c1-c1ccc2c(c1)nc([C@@H]1CCCC(=O)N1c1ccc(F)c(F)c1)n2C1CCN(CC(=O)NCCOCCOCCOCCNc2ccc3c(c2)C(=O)N(C2CCC(=O)NC2=O)C3=O)CC1 (some centres not stated) |
| 84.8 | Cc1noc(C)c1-c1ccc2c(c1)nc([C@@H]1CCCC(=O)N1c1ccc(F)c(F)c1)n2C1CCN(CC(=O)Nc2ccc(CNc3cccc4c3C(=O)N(C3CCC(=O)NC3=O)C4=O)cc2)CC1 (some centres not stated) |
| 2640 | Cc1noc(C)c1-c1ccc2c(c1)nc([C@@H]1CCCC(=O)N1c1ccc(F)c(F)c1)n2C1CCN(CC(=O)NCCCNc2ccc3c(c2)C(=O)N(C2CCC(=O)NC2=O)C3=O)CC1 (some centres not stated) |
| 1900 | Cc1noc(C)c1-c1ccc2c(c1)nc([C@@H]1CCCC(=O)N1c1ccc(F)c(F)c1)n2C1CCN(CC(=O)NCCOCCNc2cccc3c2C(=O)N(C2CCC(=O)NC2=O)C3=O)CC1 (some centres not stated) |
| 44.2 | Cc1noc(C)c1-c1ccc2c(c1)nc([C@@H]1CCCC(=O)N1c1ccc(F)c(F)c1)n2C1CCN(CC(=O)Nc2cnc(-c3ccc(CNc4cccc5c4C(=O)N(C4CCC(=O)N(C)C4=O)C5=O)cc3)nc2)CC1 (some centres not stated) |
| 30.1 | Cc1noc(C)c1-c1ccc2c(c1)nc([C@@H]1CCCC(=O)N1c1ccc(F)c(F)c1)n2C1CCN(CC(=O)Nc2ccc(C3CCN(c4cccc5c4C(=O)N(C4CCC(=O)NC4=O)C5=O)CC3)cc2)CC1 (some centres not stated) |
| 2020 | Cc1noc(C)c1-c1ccc2c(c1)nc([C@@H]1CCCC(=O)N1c1ccc(F)c(F)c1)n2C1CCN(CC(=O)NCCOCCOCCOCCNc2cccc3c2C(=O)N(C2CCC(=O)NC2=O)C3=O)CC1 (some centres not stated) |

Target: Protein cereblon/Histone acetyltransferase p300 (Homo sapiens) (UniProt Q09472+Q96SW2)
Assay: PROTAC activity at CRBN/p300 in human MV4-11 cells assessed as p300 degradation at 10 to 50 nM incubated for 24 hrs by Western blotting analysis
Assay type: cell-based
Settings: dose 10-50 nM

Sequence of Protein cereblon/Histone acetyltransferase p300 (Homo sapiens) (Q09472 2-2414 limits assumed): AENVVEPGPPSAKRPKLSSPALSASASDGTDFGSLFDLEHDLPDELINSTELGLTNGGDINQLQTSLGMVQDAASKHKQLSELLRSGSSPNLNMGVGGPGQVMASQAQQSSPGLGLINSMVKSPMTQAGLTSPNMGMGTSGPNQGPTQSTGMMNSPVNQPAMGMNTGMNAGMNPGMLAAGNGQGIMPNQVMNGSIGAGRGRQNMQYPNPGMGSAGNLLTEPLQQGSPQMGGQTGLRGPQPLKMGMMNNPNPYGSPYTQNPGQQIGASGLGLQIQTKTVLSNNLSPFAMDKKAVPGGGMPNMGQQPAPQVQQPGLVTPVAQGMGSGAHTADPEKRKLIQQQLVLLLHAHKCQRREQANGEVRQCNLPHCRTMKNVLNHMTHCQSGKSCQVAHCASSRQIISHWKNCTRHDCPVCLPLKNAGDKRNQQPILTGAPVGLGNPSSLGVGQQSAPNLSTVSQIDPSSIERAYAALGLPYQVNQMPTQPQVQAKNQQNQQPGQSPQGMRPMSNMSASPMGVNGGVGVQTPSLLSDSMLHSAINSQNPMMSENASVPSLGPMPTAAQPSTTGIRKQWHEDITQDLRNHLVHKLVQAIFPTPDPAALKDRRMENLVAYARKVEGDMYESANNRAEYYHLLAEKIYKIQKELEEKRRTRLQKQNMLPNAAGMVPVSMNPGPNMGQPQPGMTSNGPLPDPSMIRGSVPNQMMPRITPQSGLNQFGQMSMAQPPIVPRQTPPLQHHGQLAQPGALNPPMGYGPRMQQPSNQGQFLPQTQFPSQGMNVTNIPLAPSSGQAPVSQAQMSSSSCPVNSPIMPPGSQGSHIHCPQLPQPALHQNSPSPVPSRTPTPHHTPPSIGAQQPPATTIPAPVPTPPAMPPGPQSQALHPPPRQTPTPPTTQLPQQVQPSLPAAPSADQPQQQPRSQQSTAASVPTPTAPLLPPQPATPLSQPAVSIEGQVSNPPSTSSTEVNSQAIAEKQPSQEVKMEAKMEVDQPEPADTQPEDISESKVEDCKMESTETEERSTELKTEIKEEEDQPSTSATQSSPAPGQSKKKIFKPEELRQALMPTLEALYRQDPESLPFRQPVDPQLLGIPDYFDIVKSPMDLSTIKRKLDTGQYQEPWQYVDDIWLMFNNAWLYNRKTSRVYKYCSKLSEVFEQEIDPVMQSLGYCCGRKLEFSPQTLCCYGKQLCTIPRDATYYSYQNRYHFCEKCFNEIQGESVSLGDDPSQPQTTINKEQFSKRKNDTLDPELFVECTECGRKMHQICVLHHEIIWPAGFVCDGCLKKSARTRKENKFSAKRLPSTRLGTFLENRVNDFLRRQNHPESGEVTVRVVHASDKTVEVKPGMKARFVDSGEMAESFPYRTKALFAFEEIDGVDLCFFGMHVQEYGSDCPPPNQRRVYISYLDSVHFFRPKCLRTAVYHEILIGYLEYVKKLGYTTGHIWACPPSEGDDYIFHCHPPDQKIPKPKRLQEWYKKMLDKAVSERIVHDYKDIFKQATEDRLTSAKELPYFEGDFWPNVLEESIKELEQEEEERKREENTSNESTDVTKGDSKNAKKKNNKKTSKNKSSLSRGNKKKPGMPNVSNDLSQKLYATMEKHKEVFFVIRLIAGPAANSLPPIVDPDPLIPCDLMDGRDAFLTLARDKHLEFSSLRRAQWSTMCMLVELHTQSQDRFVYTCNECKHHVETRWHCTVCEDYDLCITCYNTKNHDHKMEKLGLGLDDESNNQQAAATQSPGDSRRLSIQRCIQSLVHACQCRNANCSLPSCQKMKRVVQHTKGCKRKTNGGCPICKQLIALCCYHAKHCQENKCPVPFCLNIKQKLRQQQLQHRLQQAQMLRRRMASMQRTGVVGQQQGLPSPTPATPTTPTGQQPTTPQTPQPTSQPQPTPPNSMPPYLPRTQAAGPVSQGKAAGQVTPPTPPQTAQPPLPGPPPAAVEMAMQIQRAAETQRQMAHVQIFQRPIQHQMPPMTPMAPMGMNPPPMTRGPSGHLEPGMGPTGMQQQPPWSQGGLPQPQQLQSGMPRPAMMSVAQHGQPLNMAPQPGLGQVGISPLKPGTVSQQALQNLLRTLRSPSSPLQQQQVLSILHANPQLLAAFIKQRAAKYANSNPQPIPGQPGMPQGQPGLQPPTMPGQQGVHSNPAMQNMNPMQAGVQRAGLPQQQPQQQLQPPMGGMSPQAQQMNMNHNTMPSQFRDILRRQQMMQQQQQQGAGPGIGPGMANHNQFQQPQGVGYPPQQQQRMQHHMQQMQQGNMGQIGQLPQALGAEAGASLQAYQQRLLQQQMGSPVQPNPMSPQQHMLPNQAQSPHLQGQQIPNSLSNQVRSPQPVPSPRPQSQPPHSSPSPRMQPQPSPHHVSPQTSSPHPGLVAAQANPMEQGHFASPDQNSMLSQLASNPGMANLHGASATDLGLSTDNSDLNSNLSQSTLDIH
Sequence of Protein cereblon/Histone acetyltransferase p300 (Homo sapiens) (Q96SW2 whole entry partner): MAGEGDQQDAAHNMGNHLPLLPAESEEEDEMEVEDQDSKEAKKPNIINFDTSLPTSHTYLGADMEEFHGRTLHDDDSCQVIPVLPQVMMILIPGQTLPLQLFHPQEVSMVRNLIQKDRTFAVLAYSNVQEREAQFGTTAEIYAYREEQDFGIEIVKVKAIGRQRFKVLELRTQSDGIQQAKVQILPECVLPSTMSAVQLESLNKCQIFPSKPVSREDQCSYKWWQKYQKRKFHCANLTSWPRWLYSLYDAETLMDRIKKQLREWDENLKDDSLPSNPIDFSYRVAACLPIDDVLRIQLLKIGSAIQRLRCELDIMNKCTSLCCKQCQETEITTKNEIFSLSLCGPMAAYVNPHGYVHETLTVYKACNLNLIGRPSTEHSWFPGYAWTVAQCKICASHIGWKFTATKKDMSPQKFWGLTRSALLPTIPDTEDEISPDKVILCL

| Activity | Structure (SMILES) |
| --- | --- |
| inactive | Cc1noc(C)c1-c1ccc2c(c1)nc([C@@H]1CCCC(=O)N1c1ccc(F)c(F)c1)n2C1CCN(CC(=O)N2CCN(CCNc3cccc4c3C(=O)N(C3CCC(=O)NC3=O)C4=O)CC2)CC1 (some centres not stated) |
| Active | Cc1noc(C)c1-c1ccc2c(c1)nc([C@@H]1CCCC(=O)N1c1ccc(F)c(F)c1)n2C1CCN(CC(=O)NCCCCCCNc2cccc3c2C(=O)N(C2CCC(=O)NC2=O)C3=O)CC1 (some centres not stated) |
| Active | Cc1noc(C)c1-c1ccc2c(c1)nc([C@@H]1CCCC(=O)N1c1ccc(F)c(F)c1)n2C1CCN(CC(=O)NCc2ccc(CNc3cccc4c3C(=O)N(C3CCC(=O)NC3=O)C4=O)cc2)CC1 (some centres not stated) |
| Active | Cc1noc(C)c1-c1ccc2c(c1)nc([C@@H]1CCCC(=O)N1c1ccc(F)c(F)c1)n2C1CCN(CC(=O)NCCCCCCCCCCNc2cccc3c2C(=O)N(C2CCC(=O)NC2=O)C3=O)CC1 (some centres not stated) |
| Active | Cc1noc(C)c1-c1ccc2c(c1)nc([C@@H]1CCCC(=O)N1c1ccc(F)c(F)c1)n2C1CCN(CC(=O)Nc2ccc(CC3CCN(c4cccc5c4C(=O)N(C4CCC(=O)NC4=O)C5=O)CC3)cc2)CC1 (some centres not stated) |
| inactive | Cc1noc(C)c1-c1ccc2c(c1)nc([C@@H]1CCCC(=O)N1c1ccc(F)c(F)c1)n2C1CCN(CC(=O)NCCOCCOCCOCCNc2ccc3c(c2)C(=O)N(C2CCC(=O)NC2=O)C3=O)CC1 (some centres not stated) |
| Active | Cc1noc(C)c1-c1ccc2c(c1)nc([C@@H]1CCCC(=O)N1c1ccc(F)c(F)c1)n2C1CCN(CC(=O)Nc2ccc(CNc3cccc4c3C(=O)N(C3CCC(=O)NC3=O)C4=O)cc2)CC1 (some centres not stated) |
| inactive | Cc1noc(C)c1-c1ccc2c(c1)nc([C@@H]1CCCC(=O)N1c1ccc(F)c(F)c1)n2C1CCN(CC(=O)NCCCNc2ccc3c(c2)C(=O)N(C2CCC(=O)NC2=O)C3=O)CC1 (some centres not stated) |
| Active | Cc1noc(C)c1-c1ccc2c(c1)nc([C@@H]1CCCC(=O)N1c1ccc(F)c(F)c1)n2C1CCN(CC(=O)Nc2ccc(C3CCN(c4cccc5c4C(=O)N(C4CCC(=O)NC4=O)C5=O)CC3)cc2)CC1 (some centres not stated) |

Tested on: MOLM-13
Assay: Downregulation of c-Myc protein level in human MOLM-13 cells at 50 nM incubated for 24 hrs by Western blotting analysis
Assay type: functional, cell-based
Settings: not given

| Structure (SMILES) | Activity |
| --- | --- |
| Cc1noc(C)c1-c1ccc2c(c1)nc([C@@H]1CCCC(=O)N1c1ccc(F)c(F)c1)n2C1CCN(CC(=O)Nc2ccc(-c3ccc(CNc4cccc5c4C(=O)N(C4CCC(=O)NC4=O)C5=O)cc3)cc2)CC1 (some centres not stated) | Active |

Tested on: THP-1
Assay: Antiproliferative activity against human THP-1 cells
Settings: not given

| IC50 [nM] | Structure (SMILES) |
| --- | --- |
| < 3000 | CO[C@H]1CC[C@H](n2c([C@@H]3CCCC(=O)N3c3ccc(F)c(F)c3)nc3cc(-c4c(C)noc4C)ccc32)CC1 [INOBRODIB] |

Tested on: MV4-11
Assay: Antitumor activity against human MV4-11 cells xenografted in NOD-SCID mouse assessed as tumor growth inhibition at 10 mg/kg, po QD for 2 weeks
Assay type: functional
Settings: MV4-11, 336 h, read-out: TGI

| Structure (SMILES) | inhibition in vivo at 10 mg/kg [%] |
| --- | --- |
| CO[C@H]1CC[C@H](n2c([C@@H]3CCCC(=O)N3c3ccc(F)c(F)c3)nc3cc(-c4c(C)noc4C)ccc32)CC1 [INOBRODIB] | 65 |

Tested on: MOLM-13
Assay: Antiproliferative activity against human MOLM-13 cells incubated for 72 hrs by Cell-Titer Glo assay
Settings: MOLM-13, 72 h

| IC50 [nM] | Structure (SMILES) |
| --- | --- |
| 102 | CO[C@H]1CC[C@H](n2c([C@@H]3CCCC(=O)N3c3ccc(F)c(F)c3)nc3cc(-c4c(C)noc4C)ccc32)CC1 [INOBRODIB] |
| 137 | Cc1noc(C)c1-c1ccc2c(c1)nc([C@@H]1CCCC(=O)N1c1ccc(F)c(F)c1)n2C1CCN(CC(=O)Nc2ccc(-c3ccc(CNc4cccc5c4C(=O)N(C4CCC(=O)NC4=O)C5=O)cc3)cc2)CC1 (some centres not stated) |
| > 1000 | Cc1noc(C)c1-c1ccc2c(c1)nc([C@@H]1CCCC(=O)N1c1ccc(F)c(F)c1)n2C1CCN(CC(=O)Nc2ccc(-c3ccc(CNc4cccc5c4C(=O)N(C4CCC(=O)N(C)C4=O)C5=O)cc3)nc2)CC1 (some centres not stated) |
| > 1000 | Cc1noc(C)c1-c1ccc2c(c1)nc([C@@H]1CCCC(=O)N1c1ccc(F)c(F)c1)n2C1CCN(CC(=O)Nc2cnc(-c3ccc(CNc4cccc5c4C(=O)N(C4CCC(=O)N(C)C4=O)C5=O)cc3)nc2)CC1 (some centres not stated) |

Tested on: EOL1
Assay: Antiproliferative activity against human EOL1 cells
Settings: not given

| Structure (SMILES) | IC50 [nM] |
| --- | --- |
| CO[C@H]1CC[C@H](n2c([C@@H]3CCCC(=O)N3c3ccc(F)c(F)c3)nc3cc(-c4c(C)noc4C)ccc32)CC1 [INOBRODIB] | < 3000 |

Tested on: MOLM-16
Assay: Downregulation of c-Myc protein level in human MOLM16 cells at 50 nM incubated for 24 hrs by Western blotting analysis
Assay type: functional, cell-based
Settings: not given

| Structure (SMILES) | Activity |
| --- | --- |
| Cc1noc(C)c1-c1ccc2c(c1)nc([C@@H]1CCCC(=O)N1c1ccc(F)c(F)c1)n2C1CCN(CC(=O)Nc2ccc(-c3ccc(CNc4cccc5c4C(=O)N(C4CCC(=O)NC4=O)C5=O)cc3)cc2)CC1 (some centres not stated) | Active |

Tested on: MV4-11
Assay: Downregulation of c-Myc protein level in human MV4-11 cells at 50 nM incubated for 24 hrs by Western blotting analysis
Assay type: functional, cell-based
Settings: not given

| Structure (SMILES) | Activity |
| --- | --- |
| Cc1noc(C)c1-c1ccc2c(c1)nc([C@@H]1CCCC(=O)N1c1ccc(F)c(F)c1)n2C1CCN(CC(=O)Nc2ccc(-c3ccc(CNc4cccc5c4C(=O)N(C4CCC(=O)NC4=O)C5=O)cc3)cc2)CC1 (some centres not stated) | Active |

Tested on: KG-1
Assay: Antiproliferative activity against human KG-1 cells
Settings: not given

| Structure (SMILES) | IC50 [nM] |
| --- | --- |
| CO[C@H]1CC[C@H](n2c([C@@H]3CCCC(=O)N3c3ccc(F)c(F)c3)nc3cc(-c4c(C)noc4C)ccc32)CC1 [INOBRODIB] | < 3000 |

— ChEMBL document CHEMBL5506020 (J Med Chem, 2024)
